Consider 99 compounds from ChEMBL document CHEMBL3507680, “University of Dundee, Gates Library screen for HepG2 cell viability”.

Molecules are shown by their SMILES.

This series in a line: Human HepG2 cell viability assay in 384 well format. Type of series: toxicity, cell-based. Also on record: dose 125 nL, time 70.5 hour; concentration not given beside the values. The settings on record: HepG2 cells, read-out: Inhibition.
On to `N#CC1(NC(=O)c2ccc(-c3nc(C4CC4)n[nH]3)cc2)CC1`, for which the cytotoxicity at 70.5 h was -12.9%. The figure for `O=C(C1CCC1)N1C[C@@H]2CN(c3ccccc3)C(=O)[C@@H]2C1` is 11%; for `O=C(CCN1CCCO1)NC1CCCN(CC2CCCCC2)C1` (centres undefined) it is -2.41%; for `CCN(Cc1ccoc1)C(=O)Nc1ccccc1CN1CCOCC1` it is 7.89%. The figure for `CC(C)c1nnc2sc(CC3CN(C(C)C)CCO3)nn12` (centres undefined) is -7.69%; for `O=C(c1ccccn1)N1CCCC(c2nccn2CC2CCC2)C1` (centres undefined) it is 18.9%. The figure for `CC(C)C1CN(C(=O)c2cccs2)CCS1` (centres undefined) is -4.53%.

As to `Cc1c[nH]c(CN2CCCCC2CCN(C)C)c(C)c1=O` (centres undefined), the cytotoxicity at 70.5 h is -10.5%. In the case of `CSCc1cccc(S(=O)(=O)NCCCO)c1`, the cytotoxicity at 70.5 h is -6.9%. Consider `Cn1cc(C2CCCN2C(=O)c2cnc(C3CC3)s2)cn1` (centres undefined), for which the cytotoxicity at 70.5 h was -5%. For `COC(=O)[C@@H]1CCCN1C(=O)c1cn(CCCc2ccccc2)nn1` the value was -19.4%; for `O=C(Nc1cccc(CN2CCC(CO)CC2)c1)c1cc(Cl)c[nH]1`, 32.7%; for `Cc1ccoc1-c1nnc(CNCC2CCCN2c2cccnn2)o1` (centres undefined), -4.49%. On to `CN1CCN(C(=O)[C@H]2C[C@@H]3CN(c4ncc(F)cn4)C[C@@H]3N2C)CC1`, for which the cytotoxicity at 70.5 h is -8.27%. For `Cn1ncnc1CNC1CCc2cc(Cl)ccc21` (centres undefined), the cytotoxicity at 70.5 h was -19.7%.

For `Cc1nc(CNc2nc(-c3ccco3)nc3c2CCNCC3)n[nH]1`, the cytotoxicity at 70.5 h is -5.4%. The figure for `O=C1CC2(CCCCC2)C(=O)N1CC(O)COCc1ccccc1F` (centres undefined) is -4.1%. For `Cc1nc(N(C)C2CCCCC2)ncc1C(C)NC(=O)c1cccnc1` (centres undefined) the value was -5.07%. Regarding `CCC1CN(C(=O)c2csc3nc(-c4ccc(Cl)cc4)cn23)CCN1` (centres undefined), the cytotoxicity at 70.5 h was -12.3%.

On to `CN(C)C(=O)N1CCN(Cc2cnc(-c3ccsc3)s2)CC1`, for which the cytotoxicity at 70.5 h is -11.7%.

For the compound `CCCC(C#N)NC(=O)c1sccc1CC` (centres undefined), the cytotoxicity at 70.5 h was -12.4%. For `O=C(NC1CCC1)[C@H]1C[C@@H]2CN(CC3CC3)C[C@H]1O2` the value was -0.535%; for `Cc1cc(C)nc(Nc2nccnc2C2CCCN(C(C)C)C2)n1` (centres undefined), 1.6%; for `Cc1noc(C)c1CN1C[C@@H]2CCCO[C@@H]2[C@H](Nc2ccccn2)C1`, -4.07%.

For the compound `O=C(NCC1(O)CCSCC1)c1ccoc1`, the cytotoxicity at 70.5 h was -1.38%. The figure for `O=C(NCc1cc[nH]n1)NCC(c1ccccc1Cl)N1CCCC1` (centres undefined) is -14.6%; for `Cn1cccc1C(=O)N1CC2(CCN(C(=O)c3cccnc3)C2)C1` it is -7.36%; for `O=C(NCCNc1cnccn1)c1scnc1Cl` it is -8.29%. The figure for `CC(C)(O)CN1CCN(C(=O)c2cc3ccccc3c(=O)[nH]2)CC1` is -3.18%.

With `CC(CO)(NCc1noc(Cc2ccccc2)n1)C1CCCCC1` (centres undefined), the cytotoxicity at 70.5 h is -0.885%. Consider `CCN(CC1CN(Cc2ncc[nH]2)CCO1)c1cccnn1` (centres undefined), for which the cytotoxicity at 70.5 h is -6.7%. For `O=C1CCCc2occ(C(=O)N3CCCC(O)(CO)C3)c21` (centres undefined) the value was 31%; for `O=C(c1ccncc1F)N1CC[C@@H]2CN(c3ncccn3)CCO[C@@H]2C1`, -11.2%; for `c1ccc(-c2cc(CN3C[C@@H]4CC[C@H](C3)N(CC3CCC3)C4)on2)cc1`, -11.6%. For `N#CCCn1cnc2c(F)cc(Br)cc2c1=O` the value was -3.98%. With `CN(C)C1(CNC(=O)c2c(O)cc(Cl)cc2Cl)CCOCC1`, the cytotoxicity at 70.5 h is -9.63%. For `CN(C)S(=O)(=O)N1C[C@H]2C[C@H](C(=O)NCc3ccccc3)[C@@H](C1)O2` the value was -12.2%; for `CC(C)(C)C(=O)NCCC(=O)NC(C)(C)c1ccc2c(c1)OCCO2`, 1.98%. The figure for `O=S(=O)(NCCn1ccc(-c2ccccn2)n1)C1CCCCC1` is 23.9%. The figure for `CCn1ncc(C(=O)N2CCN(CC3CCCO3)CC2)c1C` (centres undefined) is -0.538%. Consider `Cc1c(Cn2c(=O)cnc3ccccc32)cnn1C`, for which the cytotoxicity at 70.5 h was -14.9%. The figure for `O=C1N(c2ccsc2)CCC12CCCN(CC1CC1)C2` (centres undefined) is -4.66%; for `O=C(NC[C@]12COC[C@H]1CN(Cc1cccc(F)c1)C2)c1ccco1` it is -12.4%. The figure for `CN(C)CCOCC1CN(CCN(C)C)Cc2ccnn2C1` (centres undefined) is -10.7%. The figure for `O=C1CC2(CCN(Cc3ncc[nH]3)CC2)CN1Cc1ccc(Cl)cc1` is -2.21%. Consider `O=c1cc(CNCc2ccc3c(c2)OCO3)nc2ccc(Br)cn12`, for which the cytotoxicity at 70.5 h was determined as 0.0084%.

As to `COc1cc(OC)cc(C(=O)NCC(c2cccn2C)N2CCCC2)c1` (centres undefined), the cytotoxicity at 70.5 h stood at 30.6%. For the compound `Cc1c(Cl)cccc1NC(=O)c1nc[nH]n1`, the cytotoxicity at 70.5 h came out at 19.3%. For `Cc1cnc(C(=O)N(C)[C@@H]2CCC[C@@H](Oc3ccccc3)[C@@H]2O)cn1` the value was 16.9%; for `Cc1cccc(CN2CCN(C(=O)c3ccc(C)[nH]c3=O)CC2)c1`, -7.34%; for `Cc1ccc(N2CCCC(NC(=O)Nc3cnn(C)c3)C2=O)cc1` (centres undefined), 9.02%. For `Cc1ccc(F)c(NCc2ccc(C(=O)N(C)C)[nH]2)c1` the value was -3.46%. For `CC(C1CCN(Cc2cnc(-c3cccs3)nc2)CC1)N(C)C` (centres undefined) the value was 28.9%; for `Cc1nc(O)cc(C2CCN(C(=O)c3[nH]nc4c3CC(C)CC4)CC2)n1` (centres undefined), -11%. For `CCn1c(C)nnc1CN(C)C1CCN(Cc2ccon2)C1` (centres undefined), the cytotoxicity at 70.5 h is -1.86%. For `CN(C)c1ccc(C(=O)Nc2cn[nH]c2)cc1` the value was -2.5%; for `CCc1noc(C2CCCCN2C(=O)c2cc(C)on2)n1` (centres undefined), -6.42%; for `Cc1noc(C)c1CC(=O)OCC(=O)N1CCc2sccc2C1`, 7.95%.

For `Cc1cc(N2CCC3(CC2)C(C(=O)O)CC(=O)N3C)nc2ccccc12` (centres undefined), the cytotoxicity at 70.5 h is -6.81%. The figure for `CC(C)c1nccn1C1CCCN(C(=O)c2ccc3[nH]cnc3c2)C1` (centres undefined) is 8.82%. For `CNc1cc(N2CCCC2CNCc2cnc(C)s2)ncn1` (centres undefined) the value was 2.89%; for `c1ccc(CCCN2CC[C@H](c3nnc(-c4ccccc4)o3)C2)cc1`, -2.93%.

On to `CCn1cc(S(=O)(=O)NC2CCCN(CC3CCCCC3)C2)cn1` (centres undefined), for which the cytotoxicity at 70.5 h was 15.9%. Regarding `Cc1ccc2cccc(S(=O)(=O)N(C)CC3CCN(C)C3)c2n1` (centres undefined), the cytotoxicity at 70.5 h is -0.784%. In the case of `CC1c2ncc(Cn3cncn3)n2CCN1C1CCOCC1` (centres undefined), the cytotoxicity at 70.5 h came out at 2.73%. `N#Cc1ccc(CN2CCN(c3cncc(Cl)n3)CC2=O)cc1`: the cytotoxicity at 70.5 h was -4.86%. Take `CSCc1nc(CCNC(=O)c2cnn(C(C)C)c2)cs1`: the cytotoxicity at 70.5 h is -1.66%. On to `Cc1cc(NCc2ccccc2CN2CCCCC2)n2ncnc2n1`, for which the cytotoxicity at 70.5 h was -10.1%. For `CC(C)c1nnc2n1CCN(Cc1ccc3c(c1)OCCO3)C2` the value was 0.93%. For `CC(C)COC(C)C(=O)N1CCN(S(C)(=O)=O)CC1` (centres undefined) the value was -0.767%. For `CN(C(=O)C1CCCCC1)[C@@H]1CCC[C@@H](N2CCOCC2)[C@@H]1O`, the cytotoxicity at 70.5 h is -11.9%. For `CCC[C@H]1CN(Cc2ccccc2C#N)C[C@@H]1NS(C)(=O)=O` the value was -6.89%; for `O=C(CCc1ccncc1)N1CCCC(n2cccn2)C1` (centres undefined), -1.5%. For `CN1CCC(C(=O)NCCC2CN(c3cnn(C)c(=O)c3)CCO2)CC1` (centres undefined) the value was -7.81%. For `Cc1ncnc2c1CCN(Cc1nccs1)CC2` the value was -5.22%. As for `Cc1cc(C(=O)N2CCCC3(CNC(=O)O3)C2)c2c(C)nn(C)c2n1` (centres undefined), the cytotoxicity at 70.5 h was -5.33%. For `Cn1ncnc1NS(=O)(=O)c1ccc(F)cc1Cl` the value was -1.04%; for `CCOc1cccc(C2CC(=O)NCc3nc(N(C)C)sc32)c1` (centres undefined), -5.3%.

Take `COc1ccc2c(c1)CN(c1nc(C)cc(C)n1)CC2`: the cytotoxicity at 70.5 h was 3.73%. For `Fc1ccc(CN2CCO[C@H]3[C@H](OCC4CCCC4)CC[C@@H]32)cc1` the value was -9.77%; for `O=C(NC1CCCN(CCCc2ccccc2)C1)C1=CCCCC1` (centres undefined), -0.678%; for `CCc1cc(N2C[C@H](C3CC3)[C@@H](N)C2)nc(N2CCOCC2)n1`, -5.91%.

For the compound `Cc1cnn(CC2CN(c3ncnc4ccccc34)CCO2)c1` (centres undefined), the cytotoxicity at 70.5 h worked out at 31.7%.

As for `CCS(=O)(=O)N1CCC(Nc2c(Cl)cccc2C#N)CC1`, the cytotoxicity at 70.5 h is -90.6%. For `CN(C)C1CCN(C(=O)NCc2ccccc2Cn2cncn2)CC1` the value was -11.6%; for `CCn1cc(CNc2ccc(Br)c(OC)c2)cn1`, 4.22%.

In the case of `CCc1noc(C(C)N2CCN(CCN3CCCC3=O)CC2)n1` (centres undefined), the cytotoxicity at 70.5 h was -2.78%. The figure for `CN1CCCn2c(nc(CNC(=O)c3nccn3C)cc2=O)C1` is -1.89%.

As for `CCCC(=O)Nc1ccc(CC(=O)N(CC)CC2CCCCO2)cc1` (centres undefined), the cytotoxicity at 70.5 h was determined as 8.7%. The figure for `CC(=O)N1CCCC1c1nc(N(C)C)ncc1-c1ccccc1` (centres undefined) is 23.2%; for `CCN(CC)S(=O)(=O)NCC1COc2ccccc2O1` (centres undefined) it is 24.9%.

With `Cc1nnc(CN2CCCC2c2ccsc2)o1` (centres undefined), the cytotoxicity at 70.5 h was -4.6%. For `Fc1cnc(N2CCC3(COCc4cnc(NCC5CC5)nc43)C2)nc1` (centres undefined) the value was -6.29%. Regarding `CC(C)(C)n1ncc(C(=O)NCCCC(N)=O)c1C(F)(F)F`, the cytotoxicity at 70.5 h is -9.38%.

As to `COc1ccnc(N2CCCN(C(=O)Cc3ccc(C)s3)CC2)n1`, the cytotoxicity at 70.5 h was found to be 22.9%. For `CCn1c(SC)nnc1C1CCN(C(=O)N2CCCC2)CC1` the value was -4.95%; for `Cn1cccc1C(=O)N[C@@H]1CN(Cc2cccs2)[C@@H]2COC[C@@H]21`, -3.46%. Turning to `Cc1ccoc1C(=O)N1CCCC(CNS(C)(=O)=O)C1` (centres undefined), the cytotoxicity at 70.5 h came out at 18%. For `O=C(O)c1ccnc(-c2ccnc(COc3cccc(F)c3)n2)c1` the value was 16.7%.
